{"source": "patent US7807368B2", "about": "“Cyclin-dependent kinase inhibitors as targets for opiod growth factor treatment” (priority 2006, dated 2010)", "key": {"Rb protein": {"test_system": "Rb protein", "assay": "Western blot of Rb, phospho-Rb, p105 and p107 in synchronized SCC-1 cells", "type": "cell-based, human", "procedure": "Synchronized cells (˜2×10^6) from each treatment were solubilized in 200 μl RIPA buffer (1×PBS, 10 μM IGEPAL, 1 mg/ml SDS, 5 mg/ml deoxycholic acid), containing protease and phosphatase inhibitors (2 μg/ml aprotinin, 3 mg/ml phenylmethyl sulfonyl fluoride (PMSF), 1 mM sodium orthovanidate, 1 μM okadaic acid). Total protein concentrations were measured using the DC protein assay kit (Bio-Rad Laboratories, Hercules, Calif.). Equal amounts of protein (40 μg) were subjected to 10% SDS-PAGE followed by transfer of proteins onto polyvinylidene difluoride (Millipore, Billerica, Mass.) using standard protocols. The following antibodies were purchased from commercial sources: phospho-Rb (Ser795), phospho-Rb (Ser807/811) (Cell Signaling Technology, Beverly, Mass.); phospho-Rb (Thr821) (Biosource, Camarillo, Calif.); Cdk4, cyclin D1, p15, p16, p18, p19 (Santa Cruz Biotechnology, Santa Cruz, Calif.); total Rb, p21, p27 (BD PharMingen, San Diego, Calif.); β-actin (Clone AC-15, Sigma). The following dilutions of primary antibodies were used to detect respective proteins. 1:200 phospho-Rb (Ser795), 1:200 phospho-Rb (Ser807/811); 1:200 phospho-Rb (Thr821); 1:200 Cdk4, 1:200 cyclin D1, 1:100 p16; 1:200 total Rb, 1:200 p21, 1:100 p27. […]\nTo determine equal loading of total protein samples, blots were reprobed with monoclonal antibody against β-actin at a dilution of 1:2000. […] Means and SE were determined from 3 or more independent experiments.\nTo quantify expression levels or kinase activity, the optical density of each band was determined by densitometry and analyzed by QuickOne (Bio-Rad Laboratories). […] To report the changes due to OGF treatment, the fold increase was calculated by dividing the normalized value from the OGF treated samples by the normalized value of control samples at each time point; thus, increases due to OGF have values greater than one, and decreases due to OGF have values less than one."}, "p21": {"test_system": "p21", "assay": "Western blot of p21 in Capan-2 cells", "type": "cell-based, human", "settings": "3 hours", "procedure": "Human pancreatic cancer cell lines BxPC-3, PANC-1, and Capan-2 were obtained from the American Type Culture Collection (Manassas, Va.), and cultured in RPMI, Dulbecco's Modified Medium, or McCoy's 5A medium, respectively. All media were supplemented with 10% fetal bovine serum, 1.2% sodium bicarbonate, and 0.25% antibiotics (5000 units/ml penicillin, 5 μg/ml streptomycin and 10 μg/ml neomycin). OGF was purchased from Sigma-Aldrich (St. Louis, Mo.), dissolved in sterile water, and used at a final concentration of 10^−6 M.\nSynchronized cells (2×10^6) from each treatment were solubilized in 200 μl RIPA buffer (1×PBS, 10 μM IGEPAL, 1 mg/ml SDS, 5 mg/ml deoxycholic acid), containing protease and phosphatase inhibitors (2 μg/ml aprotinin, 3 mg/ml phenylmethyl sulfonyl fluoride, 1 mM sodium orthovanidate, 1 μM okadaic acid). Total protein concentrations were measured using the DC protein assay kit (Bio-Rad Laboratories, Hercules, Calif.). Equal amounts of protein (40 μg) were subjected to 10% SDS-PAGE followed by transfer of proteins onto polyvinylidene difluoride (Millipore, Billerica, Mass.) using standard protocols.\nThe p21-targeted siRNAs were obtained from Santa Cruz Biotechnology, and negative control siRNAs were purchased from Ambion (Ambion, Inc., Austin, Tex.). For transfection, 2×10^5 cells per well were seeded in 6-well plates containing 1 ml of media without antibiotics. […]"}}, "data": [{"substance": "[Met^5]-enkephalin [OGF]", "values": [{"measurement": "phospho-Rb (pT821) levels", "setting": "Rb protein; OGF treatment, Western blot", "value": "did not alter"}, {"measurement": "Expression of total Rb protein", "setting": "Rb protein; after 14 h of OGF treatment", "value": "not decreased"}, {"measurement": "Total levels of p105 and p107", "setting": "Rb protein; after exposure to OGF", "value": "no changes"}, {"measurement": "p21 expression relative to control cultures", "setting": "p21", "value": "increased p21 expression"}]}]}
